US12376594B2, “Pest control kit and method” (priority 2019, dated 2025)

Tests used:
[1] = tested on: Welsh chafer, Hoplia philanthus grubs; assay: Field trial, control of chafer grubs in golf course; type: in vivo; conditions: The Grove Golf Club, nematodes 2.5 billion per hectare twice weekly, Chlorpyrifos 2 litres a.i. per hectare once
Experimental: Trial was conducted at The Grove Golf Club, Watford, London, UK between May 2017 and October 2018. Treatments consisted of: Heterorhabditis bacteriophora 2.5 billion/ha applied alone, Pest control kit-C 2.5 billion/ha applied with Wetting agent composition (10 L/ha) and Chlorpyrifos (Equity) 2 L a.i./ha. All treatments were applied using soil injector followed conventional boom sprayer. Soil samples were taken at 2, 4, 6, and 8 weeks post application to assess grub population.
Field trials were conducted on a naturally infested tees, green and fairways containing a mixture of Welsh chafer, Hoplia philanthus (90%), Garden chafer, Phyllopertha horticola (3%), Summer chafer, Amphimallon solstitialis (1%), May beetle, Melolontha (4%) and wireworms Agriotes species (3%) at The Grove Golf Club, Watford, and Ashridge Golf Club, Berkhamsted, UK. […] No natural nematodes were detected by baiting soil samples with Galleria mellonella larvae.
One week before treatment, the pre-treatment larval density was determined in tees, greens and fairways (see FIG. 4) by taking three 16×16×10 to 15 cm soil plugs with a shovel or golf Hole Cutter (10 cm diameter). The living larvae were counted and expressed as number of larvae per square meter. […]
The treatments included: • 1. […] The larval density after treatment was determined 2, 4, 6, or 8 weeks after nematode or chlorpyrifos application. […]

[2] = tested on: sciarid fly larvae; assay: Field trial, control of sciarid fly larvae in mushroom production; type: in vivo, Lycoriella spp.; conditions: first week of application
Experimental: Treatments consisted of: Carbofuran, Teflubenzuron, Steinernema feltiae alone or with Wetting agent composition (as Pest control kit-S). Trial was conducted in mushroom production farm in UK in 2016-17. Mushrooms were naturally infected with sciarid larvae and numbers counted week 1 and 3 post treatments. Each treatment was replicated 4 times with 15 plants/treatment.
Fungus gnats, also known as sciarid flies, found on and around growing media, are a major pest for greenhouse and polytunnel ornamental crops. The sciarid fly larvae are responsible for causing damage to an extensive variety of economically important potted plants directly through feeding on roots and stalk tissue of seedlings, cuttings and younger plants. They also cause damage indirectly through the transmission of fungal disease through the wounds caused by sciarid larvae. Pot plants known to be susceptible to sciarid attack include Poinsettia, Azalea, Cyclamen, Kalanchoe, Exacum, Gerbera, Begonia and others. All kinds of young plants and young rooted cuttings (vegetables, ornamentals and young nursery plants) are highly susceptible to sciarid larvae. […] Mushrooms were harvested for up to 4 weeks and number of dead and live larvae were counted. […]
The number of surviving larvae was transformed into percentage efficacy using the equation below and analysed using analysis of variance (ANOVA). […]

Structure (SMILES) | Control of chafer grubs [1] [%] | Sciarid fly larvae control [2] [%]
CCOP(=S)(OCC)Oc1nc(Cl)c(Cl)cc1Cl [Chlorpyrifos] | 62 | –
O=C(NC(=O)c1c(F)cccc1F)Nc1cc(Cl)c(F)c(Cl)c1F [Teflubenzuron] | – | 71
